Six compounds from the NIST ThermoML archive (doi:10.1016/j.jct.2013.01.005) can be followed below.

Structures are written as SMILES. Numbers after ± are expanded uncertainties.

The conditions of data set [1]: 101.33 kPa, Liquid, Vibrating tube method.
Data set [2] can be described thus: activity coefficient (dimensionless); of the first substance listed, at infinite dilution; xn = mol fraction of the nth substance listed. The note with it: 101 kPa, Liquid, Chromatography, x1 = 0.

Regarding `CCCCC[N+]1(C)CCCCC1.O=S(=O)([N-]S(=O)(=O)C(F)(F)F)C(F)(F)F`, the mass density (as a rule, the mass of a sample divided by its volume) in data set [1] (293.15 K) amounted to 1354.47 ± 0.26 kg/m3; in data set [1] (298.15 K), 1350.13 ± 0.26 kg/m3; in data set [1] (303.15 K), 1345.85 ± 0.26 kg/m3; in data set [1] (308.15 K), 1341.7 ± 0.26 kg/m3; in data set [1] (313.15 K), 1337.54 ± 0.26 kg/m3; in data set [1] (318.15 K), 1333.36 ± 0.25 kg/m3. Besides, the mass density in data set [1] (323.15 K) amounted to 1329.2 ± 0.25 kg/m3; in data set [1] (328.15 K) it was 1325.05 ± 0.25 kg/m3; in data set [1] (333.15 K), 1320.89 ± 0.25 kg/m3; in data set [1] (338.15 K), 1316.75 ± 0.25 kg/m3; in data set [1] (343.15 K), 1312.6 ± 0.24 kg/m3; in data set [1] (348.15 K) it was 1308.46 ± 0.24 kg/m3. Also, the mass density was 1304.36 ± 0.24 kg/m3 in data set [1] (353.15 K) and 1300.26 ± 0.24 kg/m3 in data set [1] (358.15 K).
Turning to `CCCCCC[N+]1(C)CCCCC1.O=S(=O)([N-]S(=O)(=O)C(F)(F)F)C(F)(F)F`, the mass density in data set [1] (293.15 K) came out at 1329.53 ± 0.18 kg/m3; in data set [1] (298.15 K), 1325.41 ± 0.18 kg/m3; in data set [1] (303.15 K) it was 1321.3 ± 0.18 kg/m3; in data set [1] (308.15 K), 1317.2 ± 0.18 kg/m3; in data set [1] (313.15 K), 1313.11 ± 0.18 kg/m3; in data set [1] (318.15 K), 1309.04 ± 0.18 kg/m3. Besides, the mass density in data set [1] (323.15 K) worked out at 1304.98 ± 0.18 kg/m3; in data set [1] (328.15 K), 1300.93 ± 0.18 kg/m3; in data set [1] (333.15 K) it was 1296.9 ± 0.17 kg/m3; in data set [1] (338.15 K), 1292.88 ± 0.17 kg/m3; in data set [1] (343.15 K), 1288.87 ± 0.17 kg/m3; in data set [1] (348.15 K), 1284.87 ± 0.17 kg/m3. Moreover, the mass density is listed as 1280.88 ± 0.17 kg/m3 in data set [1] (353.15 K) and 1276.91 ± 0.17 kg/m3 in data set [1] (358.15 K).
Regarding `CCCOCCC` [dipropyl ether] + CCCCC[N+]1(C)CCCCC1.O=S(=O)([N-]S(=O)(=O)C(F)(F)F)C(F)(F)F, the activity coefficient came out at 4.17 ± 0.28 in data set [2] (308.15 K); 4.13 ± 0.28 in data set [2] (318.15 K); 4.05 ± 0.28 in data set [2] (328.15 K); 4.02 ± 0.27 in data set [2] (338.15 K); 3.98 ± 0.27 in data set [2] (348.15 K); 3.96 ± 0.27 in data set [2] (358.15 K).
On to `CCC(C)(C)C` [2,2-dimethylbutane] + CCCCCC[N+]1(C)CCCCC1.O=S(=O)([N-]S(=O)(=O)C(F)(F)F)C(F)(F)F, for which the activity coefficient in data set [2] (308.15 K) was 6.67 ± 0.45; in data set [2] (318.15 K), 6.44 ± 0.44; in data set [2] (328.15 K), 6.12 ± 0.42; in data set [2] (338.15 K) it was 6 ± 0.41; in data set [2] (348.15 K), 5.84 ± 0.4; in data set [2] (358.15 K), 5.65 ± 0.39.
As to `c1ccsc1` [thiophene] + CCCCC[N+]1(C)CCCCC1.O=S(=O)([N-]S(=O)(=O)C(F)(F)F)C(F)(F)F, the activity coefficient in data set [2] (308.15 K) was 0.646 ± 0.044; in data set [2] (318.15 K), 0.665 ± 0.045; in data set [2] (328.15 K), 0.673 ± 0.046; in data set [2] (338.15 K), 0.69 ± 0.046; in data set [2] (348.15 K), 0.708 ± 0.047; in data set [2] (358.15 K), 0.722 ± 0.048.
In the case of `Cc1cccc(C)c1` [1,3-dimethylbenzene] + CCCCCC[N+]1(C)CCCCC1.O=S(=O)([N-]S(=O)(=O)C(F)(F)F)C(F)(F)F, the activity coefficient in data set [2] (308.15 K) is 1.14 ± 0.07; in data set [2] (318.15 K), 1.16 ± 0.07; in data set [2] (328.15 K), 1.19 ± 0.08; in data set [2] (338.15 K), 1.23 ± 0.08; in data set [2] (348.15 K), 1.27 ± 0.08; in data set [2] (358.15 K) it was 1.29 ± 0.08.
